According to patent EP2931723B1, “NEW BICYCLIC COMPOUNDS AND THEIR USE AS ANTIBACTERIAL AGENTS AND -LACTAMASE INHIBITORS” (Fedora Pharmaceuticals Inc., priority 2012, dated 2014):
Like-named read-outs stand apart in the source and are kept apart here.

Legend:
Assay type in all cases: cell-based
K. pneumo JMI 2693 = experiment: MIC, antibacterial and synergistic activity; conditions: K. pneumo JMI 2693 (NDM-1 (Cpase)); substance alone
Method: (§1) In the Tables 10 - 12, compounds herein disclosed were tested in combination with various antibiotics against metallo β-lactamase producing bacteria.

K. pneumo JMI 2697 = experiment: MIC, antibacterial and synergistic activity; conditions: K. pneumo JMI 2697 (IMP-4 (Cpase)); substance alone
Method: as §1

E. coli JMI 2692 = experiment: MIC, antibacterial and synergistic activity; conditions: Escherichia coli, JMI2692
Method: as §1

E. coli JMI 10767 = experiment: MIC, antibacterial and synergistic activity; conditions: Escherichia coli, JMI10767; E. coli JMI 10767 (Wt); substance alone
E. coli JMI 11103 = experiment: MIC, antibacterial and synergistic activity; conditions: Escherichia coli, JMI11103, E. coli JMI 11103 (CTX-M15 (Intermediate ESBL)); substance alone
[1] = test system: metallo β-lactamase producing bacteria; experiment: MIC in combination with various antibiotics against metallo β-lactamase producing bacteria (Tables 10-12); conditions: agent alone
Method: as §1

K. pneumo JMI 2699 = experiment: MIC, antibacterial and synergistic activity; conditions: K. pneumo JMI 2699 (VIM-1, CTX-M3), substance alone
Method: (§2) In the Tables 10 - 12, compounds herein disclosed were tested in combination with various antibiotics against metallo β-lactamase producing bacteria. Table 3: Synergy of the inhibitor Ex. 1 (4 µg/mL) in combination with antibiotics

P. aerug JMI 2686 [2] = experiment: MIC, antibacterial and synergistic activity; conditions: P. aerug JMI 2686 (KPC-2 (Cpase)); substance alone
Method: as §2

E. coli JMI 2665 = experiment: MIC, antibacterial and synergistic activity; conditions: Escherichia coli
Method: as §2

K. pneumo JMI 4088 [3] = experiment: MIC, antibacterial and synergistic activity; conditions: K. pneumo JMI 4088 (KPC-3 (Cpase)); substance alone
Method: as §2

E. coli JMI 2671 = experiment: MIC, antibacterial and synergistic activity; conditions: Escherichia coli, JMI2671, E. coli JMI 2671 (VIM-19 (Cpase)); substance alone
Method: as §2

E. coli JMI 10768 = experiment: MIC, antibacterial and synergistic activity; conditions: Escherichia coli, JMI10768; E. coli JMI 10768 (CTX-M15 (Weak ESBL)); substance alone
Method: as §2

K. pneumo JMI 2673 = experiment: MIC, antibacterial and synergistic activity; conditions: K. pneumo JMI 2673 (CTX-M14 (ESBL)); substance alone
A. baumanii JMI 2659 = experiment: MIC, antibacterial and synergistic activity; conditions: Acinetobacter baumannii, JMI2659
K. pneumo JMI 2681 = experiment: MIC, antibacterial and synergistic activity
K. pneumo JMI 2674 [4] = experiment: MIC, antibacterial and synergistic activity; conditions: K. pneumo JMI 2674 (CTX-M15 (ESBL)); substance alone
E.coli JMI 4103 = experiment: MIC, antibacterial and synergistic activity; conditions: Escherichia coli, JMI4103; E.coli JMI 4103 (KPC-2, Tem-1, CMY-Type); substance alone
E. coli ATCC 25922 = experiment: MIC, antibacterial and synergistic activity; conditions: Escherichia coli, ATCC25922; E. coli ATCC 25922 (Wt); substance alone
E. cloacae JMI 36 = experiment: MIC, antibacterial and synergistic activity; conditions: Enterobacter cloacae, JMI36
E. coli JMI 10770 = experiment: MIC, antibacterial and synergistic activity; conditions: Escherichia coli, JMI10770; E. coli JMI 10770 (CTX-M15 (Hyper ESBL)); substance alone
P. aerug JMI 149 = experiment: MIC, antibacterial and synergistic activity
K.pneumo JMI 4109 = experiment: MIC, antibacterial and synergistic activity; conditions: K.pneumo JMI 4109 (SHV-1, SHV-12); substance alone
E. coli JMI 4080 = experiment: MIC, antibacterial and synergistic activity; conditions: Escherichia coli, JMI4080, E. coli JMI 4080 (Tem-10); substance alone
K. pneumo JMI 4106 = experiment: MIC, antibacterial and synergistic activity; conditions: K. pneumo JMI 4106 (KPC-3, TEM-1, SHV-12, SHV-141), substance alone
K. pneumo JMI 2674 [5] = experiment: MIC, antibacterial and synergistic activity; conditions: K. pneumo JMI 2674 (CTX-M15 (ESBL)); substance alone; remark: listed apart in the source
Method: as §2

P. aerug JMI 2686 [6] = experiment: MIC, antibacterial and synergistic activity; conditions: P. aerug JMI 2686 (KPC-2 (Cpase)); substance alone; remark: listed apart in the source
K. pneumo JMI 4088 [7] = experiment: MIC, antibacterial and synergistic activity; conditions: K. pneumo JMI 4088 (KPC-3 (Cpase)); substance alone; remark: listed apart in the source
[8] = Citrobacter freundii, Isolate No 49469, Enzyme NDM-1, unit assumed
[9] = Enterobacter aerogenes, Isolate No 8397, Enzyme VIM-1, unit assumed
[10] = Enterobacter aerogenes, Isolate No 47683, Enzyme VIM-12, unit assumed
[11] = Enterobacter cloacae, Isolate No 4, Enzyme VIM-6, unit assumed
[12] = Enterobacter cloacae, Isolate No 10, Enzyme IMP-26, unit assumed
[13] = Enterobacter cloacae, Isolate No 25, Enzyme IMP-4, unit assumed
[14] = Enterobacter cloacae, Isolate No 1068, Enzyme VIM-2, unit assumed
[15] = Enterobacter cloacae, Isolate No 1471, Enzyme VIM-1, unit assumed
[16] = Enterobacter cloacae, Isolate No 3686, Enzyme IMP-1, unit assumed
[17] = Enterobacter cloacae, Isolate No 53477, Enzyme NDM-1, unit assumed
[18] = Escherichia coli, Isolate No 17, Enzyme NDM-1, unit assumed
[19] = Escherichia coli, Isolate No 49, Enzyme NDM-1, unit assumed
[20] = Escherichia coli, Isolate No 53749, Enzyme NDM-1, unit assumed
[21] = Klebsiella oxytoca, Isolate No 24825, Enzyme IMP-26, unit assumed
[22] = Klebsiella oxytoca, Isolate No 31141, Enzyme VIM-23, unit assumed
[23] = Klebsiella pneumoniae, Isolate No 16, Enzyme VIM-5, unit assumed
[24] = Klebsiella pneumoniae, Isolate No 38, Enzyme NDM-1, unit assumed
[25] = Providencia stuartii, Isolate No 26582, Enzyme VIM-1, unit assumed
[26] = Serratia marcescens, Isolate No 35, Enzyme IMP-4, unit assumed
[27] = Serratia marcescens, Isolate No 36098, Enzyme IMP-19, unit assumed
[28] = E. coli JMI 2692 (NDM-1, TEM-1, CTX-M-15), substance alone, read-out: MIC

Structure (SMILES): C[C@@H](O)[C@H]1C(=O)N2C(C(=O)O)=C(S[C@@H]3CN[C@H](C(=O)N(C)C)C3)[C@H](C)[C@H]12 [Meropenem, meropenem, reference compound]
- MIC (K. pneumo JMI 2693): 8 µg/mL
- MIC (K. pneumo JMI 2697): 64 µg/mL
- MIC (E. coli JMI 2692): 256 µg/mL
- MIC (E. coli JMI 10767): ≤ 1 µg/mL
- MIC (E. coli JMI 11103): ≤ 1 µg/mL
- MIC [1, 8]: 16 µg/mL
- MIC [1, 9]: 64 µg/mL
- MIC [1, 10]: 8 µg/mL
- MIC [1, 11]: 2 µg/mL
- MIC [1, 12]: 16 µg/mL
- MIC [1, 13]: 16 µg/mL
- MIC [1, 14]: 2 µg/mL
- MIC [1, 15]: 2 µg/mL
- MIC [1, 16]: 8 µg/mL
- MIC [1, 17]: 32 µg/mL
- MIC [1, 18]: 32 µg/mL
- MIC [1, 19]: 8 µg/mL
- MIC [1, 20]: 64 µg/mL
- MIC [1, 21]: 32 µg/mL
- MIC [1, 22]: 2 µg/mL
- MIC [1, 23]: 8 µg/mL
- MIC [1, 24]: 32 µg/mL
- MIC [1, 25]: 1 µg/mL
- MIC [1, 26]: 8 µg/mL
- MIC [1, 27]: 8 µg/mL
- MIC (K. pneumo JMI 2699; read-out: MIC): 32 µg/mL
- MIC (P. aerug JMI 2686 [2]): 512 µg/mL
- MIC (E. coli JMI 2665; JMI2665): ≤ 1 µg/mL
- MIC (K. pneumo JMI 4088 [3]): 512 µg/mL
- MIC (E. coli JMI 2671): 64 µg/mL
- MIC (E. coli JMI 10768): ≤ 1 µg/mL
- MIC (K. pneumo JMI 2673): ≤ 1 µg/mL
- MIC (A. baumanii JMI 2659; A. baumanii JMI 2659 (Ges-14 (Cpase)), substance alone, read-out: MIC): 64 µg/mL
- MIC (K. pneumo JMI 2681; K. pneumo JMI 2681 (Oxa-48 (Cpase)), substance alone, read-out: MIC): 64 µg/mL
- MIC (K. pneumo JMI 2674 [4]): ≤ 1 µg/mL
- MIC (E.coli JMI 4103): 64 µg/mL
- MIC (E. coli ATCC 25922): 0.06 µg/mL
- MIC (E. cloacae JMI 36; E. cloacae JMI 36 (P99), substance alone, read-out: MIC): ≤ 1 µg/mL
- MIC (E. coli JMI 10770): ≤ 1 µg/mL
- MIC (P. aerug JMI 149; P. aerug JMI 149 (Bla+++D+), substance alone, read-out: MIC): 4 µg/mL
- MIC (K.pneumo JMI 4109): ≤ 1 µg/mL
- MIC (E. coli JMI 4080): ≤ 1 µg/mL

Structure (SMILES): C[C@H]1[C@H](NC(=O)/C(=N\OC(C)(C)C(=O)O)c2csc(N)n2)C(=O)N1S(=O)(=O)O [Aztreonam, aztreonam, reference compound]
- MIC (K. pneumo JMI 2693): > 512 µg/mL
- MIC (K. pneumo JMI 2697): > 512 µg/mL
- MIC (E. coli JMI 2692; [28]): > 512 µg/mL
- MIC (E. coli JMI 10767): ≤ 1 µg/mL
- MIC (K. pneumo JMI 4106): 512 µg/mL
- MIC (K. pneumo JMI 4106; read-out: MIC): > 512 µg/mL
- MIC (E. coli JMI 11103): 32 µg/mL
- MIC ([1]; Escherichia coli, Isolate No 13, Enzyme IMP-1): 16
- MIC [1, 26]: ≤ 0.12 µg/mL
- MIC (K. pneumo JMI 2699): 128 µg/mL
- MIC (K. pneumo JMI 2699; read-out: MIC): > 512 µg/mL
- MIC (K. pneumo JMI 2674 [5]): 512 µg/mL
- MIC (K. pneumo JMI 4088 [3]): 512 µg/mL
- MIC (E. coli JMI 10768): 8 µg/mL
- MIC (P. aerug JMI 2686 [6]): > 512 µg/mL
- MIC (K. pneumo JMI 2674 [4]): 32 µg/mL
- MIC (E.coli JMI 4103): > 512 µg/mL
- MIC (E. coli ATCC 25922): 0.25 µg/mL
- MIC (E. coli JMI 10770): 64 µg/mL
- MIC (E. coli JMI 4080): 64 µg/mL
- MIC (K. pneumo JMI 4088 [7]): > 512 µg/mL

Structure (SMILES): CC(C)(O/N=C(\C(=O)N[C@@H]1C(=O)N2C(C(=O)[O-])=C(C[n+]3ccccc3)CS[C@H]12)c1csc(N)n1)C(=O)O [Ceftazidime, ceftazidime, reference compound]
- MIC (K. pneumo JMI 2693): > 512 µg/mL
- MIC (K. pneumo JMI 2697): > 512 µg/mL
- MIC (E. coli JMI 2692; [28]): > 512 µg/mL
- MIC (E. coli JMI 10767): ≤ 1 µg/mL
- MIC (K. pneumo JMI 4106; read-out: MIC): > 512 µg/mL
- MIC (E. coli JMI 11103): 32 µg/mL
- MIC [1, 8]: > 256 µg/mL
- MIC [1, 9]: > 256 µg/mL
- MIC [1, 10]: 256 µg/mL
- MIC [1, 11]: 256 µg/mL
- MIC [1, 12]: > 256 µg/mL
- MIC [1, 13]: > 256 µg/mL
- MIC [1, 14]: 128 µg/mL
- MIC ([1]; Enterobacter cloacae, Isolate No 1280, Enzyme VIM-5, unit assumed): 64 µg/mL
- MIC [1, 15]: > 256 µg/mL
- MIC ([1]; Enterobacter cloacae, Isolate No 1874, Enzyme IMP-21, unit assumed): 32 µg/mL
- MIC [1, 16]: > 256 µg/mL
- MIC [1, 17]: > 256 µg/mL
- MIC ([1]; Escherichia coli, Isolate No 13, Enzyme IMP-1, unit assumed): 256 µg/mL
- MIC [1, 18]: > 256 µg/mL
- MIC [1, 19]: > 256 µg/mL
- MIC [1, 20]: > 256 µg/mL
- MIC [1, 21]: > 256 µg/mL
- MIC [1, 22]: 128 µg/mL
- MIC [1, 23]: > 256 µg/mL
- MIC [1, 24]: > 256 µg/mL
- MIC [1, 25]: > 256 µg/mL
- MIC [1, 26]: 64 µg/mL
- MIC [1, 27]: 128 µg/mL
- MIC (K. pneumo JMI 2699; read-out: MIC): > 512 µg/mL
- MIC (P. aerug JMI 2686 [2]): 512 µg/mL
- MIC (E. coli JMI 2665; JMI2665, E. coli JMI 2665 (CMY-2 (Plasmid Cpase)), substance alone, read-out: MIC): 8 µg/mL
- MIC (K. pneumo JMI 2674 [5]): 512 µg/mL
- MIC (E. coli JMI 2671): 64 µg/mL
- MIC (E. coli JMI 10768): 8 µg/mL
- MIC (K. pneumo JMI 2673): 32 µg/mL
- MIC (A. baumanii JMI 2659): 512 µg/mL
- MIC (K. pneumo JMI 2681): 512 µg/mL
- MIC (E.coli JMI 4103): > 512 µg/mL
- MIC (E. coli ATCC 25922): 0.25 µg/mL
- MIC (E. cloacae JMI 36): 128 µg/mL
- MIC (E. coli JMI 10770): 64 µg/mL
- MIC (P. aerug JMI 149): 256 µg/mL
- MIC (K.pneumo JMI 4109): 8 µg/mL
- MIC (E. coli JMI 4080): 64 µg/mL
- MIC (K. pneumo JMI 4088 [7]): > 512 µg/mL
